Measurements reported in patent US8604061B2, “2-aminooxazolines as TAAR1 ligands” (Hoffmann-La Roche Inc., priority 2007, dated 2013).

Biological target: TAAR1 (Mus musculus, UniProt Q923Y8)
Assay: TAAR1 radioligand binding, membranes of stably transfected HEK293 cells (mouse)
Conditions: not given
Experimental: For the construction of expression plasmids the coding sequences of human, rat and mouse TAAR 1 were amplified from genomic DNA essentially as described by Lindemann et al.. The Expand High Fidelity PCR System (Roche Diagnostics) was used with 1.5 mM Mg^2+ and purified PCR products were cloned into pCR2.1-TOPO cloning vector (Invitrogen) following the instructions of the manufacturer. PCR products were subcloned into the pIRESneo2 vector (BD Clontech, Palo Alto, Calif.), and expression vectors were sequence verified before introduction in cell lines.
HEK293 cells (ATCC #CRL-1573) were cultured essentially as described Lindemann et al. (2005). For the generation of stably transfected cell lines HEK293 cells were transfected with the pIRESneo2 expression plasmids containing the TAAR coding sequences (described above) with Lipofectamine 2000 (Invitrogen) according to the instructions of the manufacturer, and 24 hrs post transfection the culture medium was supplemented with 1 mg/ml G418 (Sigma, Buchs, Switzerland). After a culture period of about 10 d clones were isolated, expanded and tested for responsiveness to trace amines (all compounds purchased from Sigma) with the cAMP Biotrak Enzyme immunoassay (EIA) System (Amersham) following the non-acetylation EIA procedure provided by the manufacturer.
Cells at confluence were rinsed with ice-cold phosphate buffered saline without Ca^2+ and Mg^2+ containing 10 mM EDTA and pelleted by centrifugation at 1000 rpm for 5 min at 4° C. The pellet was then washed twice with ice-cold phosphate buffered saline and cell pellet was frozen immediately by immersion in liquid nitrogen and stored until use at −80° C. Cell pellet was then suspended in 20 ml HEPES-NaOH (20 mM), pH 7.4 containing 10 mM EDTA, and homogenized with a Polytron (PT 3000, Kinematica) at 10,000 rpm for 10 s. The homogenate was centrifuged at 48,000×g for 30 min at 4° C. and the pellet resuspended in 20 ml HEPES-NaOH (20 mM), pH 7.4 containing 0.1 mM EDTA (buffer A), and homogenized with a Polytron at 10,000 rpm for 10 s. The homogenate was then centrifuged at 48,000×g for 30 min at 4° C. and the pellet resuspended in 20 ml buffer A, and homogenized with a Polytron at 10,000 rpm for 10 s. Protein concentration was determined by the method of Pierce (Rockford, Ill.). The homogenate was then centrifuged at 48,000×g for 10 min at 4° C., resuspended in HEPES-NaOH (20 mM), pH 7.0 including MgCl2 (10 mM) and […] homogenized with a Polytron at 10,000 rpm for 10 s.
Binding assay was performed at 4° C. in a final volume of 1 ml, and with an incubation time of 30 min. […] Non-specific binding was defined as the amount of [^3H]-rac-2-(1,2,3,4-tetrahydro-1-naphthyl)-2-imidazoline bound in the presence of the appropriate unlabelled ligand (10 μM). Competing ligands were tested in a wide range of concentrations (10 pM-30 μM). […] Each experiment was performed in duplicate. All incubations were terminated by rapid filtration through UniFilter-96 plates (Packard Instrument Company) and glass filter GF/C, pre-soaked for at least 2 h in polyethylenimine 0.3%, and using a Filtermate 96 Cell Harvester (Packard Instrument Company). The tubes and filters were then washed 3 times with 1 ml aliquots of cold buffer B. Filters were not dried and soaked in Ultima gold (45 μl/well, Packard Instrument Company) and bound radioactivity was counted by a TopCount Microplate Scintillation Counter (Packard Instrument Company).

Row | SMILES | Ki
1 | NC1=NC(c2ccc(Cl)cc2C2CC2)CO1 (racemic) [Example 359, (RS)-4-(4-Chloro-2-cyclopropyl-phenyl)-4,5-dihydro-oxazol-2-ylamine] | 0.0021 µM
2 | NC1=NC(c2cc(Cl)c(Cl)cc2C(F)(F)F)CO1 (racemic) [Example 234, (RS)-4-(4,5-Dichloro-2-trifluoromethyl-phenyl)-4,5-dihydro-oxazol-2-ylamine] | 0.0093 µM
3 | NC1=NC(c2ccc(OC(F)(F)F)cc2)CO1 (racemic) [Example 12, (RS)-4-(4-Trifluoromethoxy-phenyl)-4,5-dihydro-oxazol-2-ylamine] | 0.008 µM
4 | Cc1cc(C2(C)COC(N)=N2)ccc1Cl (racemic) [Example 263, (RS)-4-(4-Chloro-3-methyl-phenyl)-4-methyl-4,5-dihydro-oxazol-2-ylamine] | 0.0023 µM
5 | NC1=NC(c2cc(F)ccc2F)CO1 (racemic) [Example 16, (RS)-4-(2,5-Difluoro-phenyl)-4,5-dihydro-oxazol-2-ylamine] | 0.0048 µM
6 | CCc1cc(Cl)ccc1C1COC(N)=N1 (racemic) [Example 344, (RS)-4-(4-Chloro-2-ethyl-phenyl)-4,5-dihydro-oxazol-2-ylamine] | 0.0025 µM
7 | NC1=NC(c2cc(Cl)cc(Cl)c2)CO1 (racemic) [Example 189, (RS)-4-(3,5-Dichloro-phenyl)-4,5-dihydro-oxazol-2-ylamine] | 0.0008 µM
8 | NC1=NC(c2cccc(Cl)c2F)CO1 (racemic) [Example 18, (RS)-4-(3-Chloro-2-fluoro-phenyl)-4,5-dihydro-oxazol-2-ylamine] | 0.0022 µM
9 | CC1(c2cc(F)c(Cl)cc2F)COC(N)=N1 (racemic) [Example 271, (RS)-4-Methyl-4-(4-chloro-2,5-difluoro-phenyl)-4,5-dihydro-oxazol-2-ylamine] | 0.0013 µM
10 | NC1=NC(c2cccc(Cl)c2)CO1 (racemic) [Example 185, (RS)-4-(3-Chloro-phenyl)-4,5-dihydro-oxazol-2-ylamine] | 0.005 µM

Same assay, conditions: mouse/rat; cell not marked 'rat'; radioligand [3H]-rac-2-(1,2,3,4-tetrahydro-1-naphthyl)-2-imidazoline, 4° C.; read-out: Ki (μM) mouse/rat

Row | SMILES | Ki
11 | NC1=N[C@@H](Cc2cccc(C(F)(F)F)c2)CO1 [Example 63, (S)-4-(3-Trifluoromethyl-benzyl)-4,5-dihydro-oxazol-2-ylamine] | 0.0086 µM
12 | CCC(C[C@H]1COC(N)=N1)c1ccc(C(F)(F)F)cc1 (stereo partly drawn) [Example 184, (S)-4-[2-(4-Trifluoromethyl-phenyl)-butyl]-4,5-dihydro-oxazol-2-ylamine] | 0.0063 µM
13 | C[C@]1(c2cc(F)ccc2F)COC(N)=N1 [Example 187, (S)-4-(2,5-Difluoro-phenyl)-4-methyl-4,5-dihydro-oxazol-2-ylamine] | 0.0021 µM
14 | C[C@]1(c2ccc(Cl)cc2)COC(N)=N1 [Example 136, (S)-4-(4-Chloro-phenyl)-4-methyl-4,5-dihydro-oxazol-2-ylamine] | 0.0038 µM
15 | CC(C[C@H]1COC(N)=N1)c1cc(F)cc(F)c1 (stereo partly drawn) [Example 202, (S)-4-[2-(3,5-Difluoro-phenyl)-propyl]-4,5-dihydro-oxazol-2-ylamine] | 0.0017 µM
16 | C[C@]1(CCc2ccccc2Cl)COC(N)=N1 [Example 228, (S)-4-[2-(2-Chloro-phenyl)-ethyl]-4-methyl-4,5-dihydro-oxazol-2-ylamine] | 0.004 µM
17 | NC1=N[C@@H](CCc2ccccc2C(F)(F)F)CO1 [Example 110, (S)-4-[2-(2-Trifluoromethyl-phenyl)-ethyl]-4,5-dihydro-oxazol-2-ylamine] | 0.0018 µM
18 | CCC(C[C@H]1COC(N)=N1)c1cc(Cl)ccc1F (stereo partly drawn) [Example 358, (S)-4-[2-(5-Chloro-2-fluoro-phenyl)-butyl]-4,5-dihydro-oxazol-2-ylamine] | 0.0084 µM
19 | CC(C[C@H]1COC(N)=N1)c1ccc(C(F)(F)F)cc1 (stereo partly drawn) [Example 165, (S)-4-[2-(4-Trifluoromethyl-phenyl)-propyl]-4,5-dihydro-oxazol-2-ylamine] | 0.0012 µM
20 | NC1=N[C@@H](CCc2ccc(OC(F)(F)F)c(F)c2)CO1 [Example 145, (S)-4-[2-(3-Fluoro-4-trifluoromethoxy-phenyl)-ethyl]-4,5-dihydro-oxazol-2-ylamine] | 0.0026 µM
21 | NC1=N[C@@H](CCc2cccc(Cl)c2)CO1 [Example 232, (S)-4-[2-(3-Chloro-phenyl)-ethyl]-4,5-dihydro-oxazol-2-ylamine] | 0.0006 µM
22 | NC1=N[C@@H](c2cc(F)cc(F)c2F)CO1 [Example 118, (S)-4-(2,3,5-Trifluoro-phenyl)-4,5-dihydro-oxazol-2-ylamine] | 0.003 µM
23 | CC(Cc1ccccc1)[C@H]1COC(N)=N1 (stereo partly drawn) [Example 154, (S)-4-(1-Methyl-2-phenyl-ethyl)-4,5-dihydro-oxazol-2-ylamine] | 0.0034 µM
24 | NC1=N[C@@H](CCc2ccncc2F)CO1 [Example 158, (S)-4-[2-(3-Fluoro-pyridin-4-yl)-ethyl]-4,5-dihydro-oxazol-2-ylamine] | 0.0068 µM
25 | C[C@]1(c2cccc(C(F)(F)F)c2)COC(N)=N1 [Example 219, (S)-4-Methyl-4-(3-trifluoromethyl-phenyl)-4,5-dihydro-oxazol-2-ylamine] | 0.0009 µM
26 | NC1=N[C@@H](c2cc(F)cc(F)c2)CO1 [Example 176, (S)-4-(3,5-Difluoro-phenyl)-4,5-dihydro-oxazol-2-ylamine] | 0.002 µM
27 | C[C@]1(CCc2ccc(Cl)cc2Cl)COC(N)=N1 [Example 304, (S)-4-[2-(2,4-Dichloro-phenyl)-ethyl]-4-methyl-4,5-dihydro-oxazol-2-ylamine] | 0.0033 µM
28 | COc1ccc([C@H]2COC(N)=N2)c(C(F)(F)F)c1 [Example 240, (+)-(S)-4-(4-Methoxy-2-trifluoromethyl-phenyl)-4,5-dihydro-oxazol-2-ylamine] | 0.0032 µM
29 | NC1=N[C@@H](c2cc(Cl)ccc2F)CO1 [Example 190, (+)-(S)-4-(5-Chloro-2-fluoro-phenyl)-4,5-dihydro-oxazol-2-ylamine] | 0.0008 µM
30 | CCC(C[C@H]1COC(N)=N1)c1ccc(F)cc1 (stereo partly drawn) [Example 210, (S)-4-[2-(4-Fluoro-phenyl)-butyl]-4,5-dihydro-oxazol-2-ylamine] | 0.0014 µM
31 | NC1=N[C@@H](CCc2cccc(C(F)(F)F)c2Cl)CO1 [Example 151, (S)-4-[2-(2-Chloro-3-trifluoromethyl-phenyl)-ethyl]-4,5-dihydro-oxazol-2-ylamine] | 0.001 µM
32 | C[C@]1(c2ccc(F)cc2F)COC(N)=N1 [Example 206, (S)-4-(2,4-Difluoro-phenyl)-4-methyl-4,5-dihydro-oxazol-2-ylamine] | 0.0032 µM
33 | NC1=N[C@@H](COCc2ccccc2)CO1 [Example 350, (S)-4-Benzyloxymethyl-4,5-dihydro-oxazol-2-ylamine] | 0.0064 µM
34 | NC1=N[C@@H](c2cccc(Cl)c2)CO1 [Example 192, (+)-(S)-4-(3-Chloro-phenyl)-4,5-dihydro-oxazol-2-ylamine] | 0.0019 µM
35 | NC1=N[C@@H](c2cc(F)ccc2C(F)(F)F)CO1 [Example 259, (+)-(S)-4-(5-Fluoro-2-trifluoromethyl-phenyl)-4,5-dihydro-oxazol-2-ylamine] | 0.0088 µM
36 | NC1=N[C@@H](CCc2ccc(F)c(F)c2)CO1 [Example 89, (S)-4-[2-(3,4-Difluoro-phenyl)-ethyl]-4,5-dihydro-oxazol-2-ylamine] | 0.0013 µM
37 | CCC(C[C@H]1COC(N)=N1)c1cc(F)cc(Cl)c1 (stereo partly drawn) [Example 357, (S)-4-[2-(3-Chloro-5-fluoro-phenyl)-butyl]-4,5-dihydro-oxazol-2-ylamine] | 0.0068 µM
38 | NC1=N[C@@H](CCc2ccc(C(F)(F)F)c(F)c2)CO1 [Example 137, (S)-4-[2-(3-Fluoro-4-trifluoromethyl-phenyl)-ethyl]-4,5-dihydro-oxazol-2-ylamine] | 0.0025 µM
39 | CC1(c2ccc(Cl)cc2Cl)COC(N)=N1 (racemic) [Example 294, (RS)-4-(2,4-Dichloro-phenyl)-4-methyl-4,5-dihydro-oxazol-2-ylamine] | 0.0038 µM
